Measurements: US8815872B2, “Macrocyclics pyrimidines as aurora kinase inhibitors” (Merck Patent GmbH, priority 2008, dated 2014)
pIC50: −log10 of the molar value. Like-named read-outs stand apart in the source and are kept apart here.

Legend:
[1] = target: Aurora B (Homo sapiens, UniProt Q96GD4); assay: Aurora B enzyme assay (Caliper); format: biochemical
Method: (§1) The Aurora and other kinase assays described here were performed on two Caliper Life Sciences systems, the LC3000 and the Desktop Profiler. These provide data on enzyme activity via measurement of the relative amounts of phosphorylated or unphosphorylated fluorescently labelled substrate peptide at the end of an enzymatic reaction. These different states of peptide are resolved by applying a potential difference across the sample. The presence of a charged phosphate group on the product (as opposed to the substrate) causes a different peptide mobility between the two peptides. This is visualized by excitation of a fluorescent label on the substrate and product peptides and represented as peaks within the analysis software.

[2] = target: kinases (not incl. Aurora); assay: Kinase inhibition profile (not incl. Aurora); format: biochemical; conditions: hit means >79% inhibition
Method: as §1
The Desktop Profiler utilizes the same principal as the LC 3000 for calculating percentage conversion of a substrate to product. Caliper Life Sciences provided proprietary flash frozen pre-made 384 well plates containing selected kinases. Each column in the 384 well plate contained a particular selected kinase. A second plate, the ‘substrate plate’ contained a mix of fluorescently labeled peptide substrate and ATP. These were arranged in columns so that transfer for substrate plate to enzyme plate provided the correct enzyme with the correct substrate/ATP concentration.
Compounds were added to a thawed enzyme plate in the desired format, in single concentrations. Reactions were initiated by transfer of the ubstrate/ATP mix from the substrate plate. The enzyme plate was incubated for 90 mins at 25 °C. The reaction was stopped by addition of […] of Stop Buffer (100 mM HEPES pH 7.5, 0.015% Brij-35, 10 mM EDTA (Sigma, E7889)).
Plates were read in a manner identical to that of the LC3000, and the ratio between substrate and product peaks provided the activity of the enzyme in that well. This was best represented by a plate heat map which colors each well by percent inhibition as compared to positive and negative controls (no inhibitors and no ATP respectively).

[3] = test system: A549; assay: Cellular activity A549; format: cell-based
Method: (§2) The susceptibility of a particular cell to treatment with the compounds according to the invention was determined by in vitro tests. Typically, a culture of the cell was combined with a compound according to the invention at various concentrations for a period of time that was sufficient to allow the active agents to induce cell death or to inhibit migration, usually between about one hour and one week. In vitro testing was carried out using cultivated cells from a biopsy sample. The viable cells remaining after the treatment then were counted.

[4] = target: T1, Aurora A (Homo sapiens, UniProt O14965); assay: Aurora A enzyme assay (Caliper LC3000 mobility shift); format: biochemical
T1 construct: N-terminal GST fusion with full length Aurora A (1-403 amino acids); purchased Carna Biosciences 05-101
T1 sequence (O14965 1-403): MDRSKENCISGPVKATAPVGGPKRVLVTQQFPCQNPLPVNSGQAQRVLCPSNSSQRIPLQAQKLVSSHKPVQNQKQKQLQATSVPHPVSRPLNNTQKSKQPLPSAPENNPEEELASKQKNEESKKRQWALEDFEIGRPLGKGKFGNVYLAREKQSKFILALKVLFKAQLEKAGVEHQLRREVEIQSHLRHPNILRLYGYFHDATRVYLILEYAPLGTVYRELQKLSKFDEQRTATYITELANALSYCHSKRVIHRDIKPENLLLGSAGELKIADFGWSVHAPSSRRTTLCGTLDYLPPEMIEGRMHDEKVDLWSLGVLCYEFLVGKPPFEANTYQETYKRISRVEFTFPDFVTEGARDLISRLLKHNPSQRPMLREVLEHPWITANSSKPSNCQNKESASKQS
Method: as §1
For example, in order to measure inhibitor activity of Aurora A inhibitors in the Caliper Life Sciences LC3000, a TTP Mosquito liquid handling instrument was used to place […] of an appropriate concentration of inhibitor in 100% DMSO (for a dose response curve calculation) into each well of a 384-well plate. To this reaction components were added to a final volume of 25 μl: • 0.067 ng/μl GST-Aurora A (Carna Biosciences 05-101. N-terminal GST fusion with full length Aurora A (1-403 amino acids), accession number NP_940835.1). • 15 μM ATP (Fluka, 02055) • 1 mM DTT (Sigma, D0632) • 1 mM MgC12 (Sigma, M1028) • 1 μM substrate peptide (sequence FITC-LRRASLG-(CONH2), synthesized by Tufts Peptide Synthesis service. • 100 mM HEPES pH 7.5 (Calbiochem, 391338) • 0.015% Brij-35 (Sigma, B4184)
The reaction was incubated for 90 min at 25° C., and then stopped by the addition of 70 μl of Stop buffer (100 mM HEPES pH 7.5, 0.015% Brij-35, 10 mM EDTA (Sigma, E7889)).
The plate was read on a Caliper LC 3000 in an Off-Chip mobility shift assay format, using the following parameters for a 12-sipper chip: screening pressure −1.8 psi, upstream voltage −2700, downstream voltage −1000. These conditions cause unphosphorylated substrate and phosphorylated product peptide to resolve as separate peaks allowing direct measurement of percentage of conversion of substrate to product. The percent conversion was plotted against concentration of inhibitor to produce a sigmoidal dose response curve, from which an IC50 was calculated using XLFit for Microsoft Excel.

[5] = test system: MiaPaca2; assay: Cellular activity MiaPaca2; format: cell-based
Method: as §2

Aurora B, sequence (Q96GD4 whole entry): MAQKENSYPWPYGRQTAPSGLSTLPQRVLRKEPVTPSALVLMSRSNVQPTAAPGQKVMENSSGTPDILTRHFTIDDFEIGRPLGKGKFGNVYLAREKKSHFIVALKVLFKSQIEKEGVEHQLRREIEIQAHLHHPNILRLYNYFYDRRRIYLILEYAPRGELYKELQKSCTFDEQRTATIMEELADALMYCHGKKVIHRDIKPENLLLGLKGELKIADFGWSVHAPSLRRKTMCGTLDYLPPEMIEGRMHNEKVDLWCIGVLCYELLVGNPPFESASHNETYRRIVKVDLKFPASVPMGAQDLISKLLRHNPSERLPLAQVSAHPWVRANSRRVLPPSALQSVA

Row | Structure (SMILES) | pIC50 [1] | Kinase Inhibition Profile (not incl. Aurora) # kinases hit/# kinases tested ([2]; at 1 μM) | pIC50 ([3]; Homo sapiens) | pIC50 [4] | pIC50 ([5]; Homo sapiens, MIA PaCa-2) | Kinase Inhibition Profile (not incl. Aurora) # kinases hit/# kinases tested ([2]; at 10 μM) | pIC50 [3] | pIC50 ([5]; MiaPaca2)
1 | CN1CCN(c2ccc3cc2CC(=O)NC[C@@H]2C[C@@H]4C[C@H]2[C@@H](Nc2nc(ncc2F)N3)[C@H]4C(N)=O)CC1 | 5.20 to 6.00 | 0/73 at 1 μM | < 5.20 | 6.00 to 7.00 | 5.20 to 6.00 |  |  | 
2 | CN1CCN(c2ccc3cc2C(=O)NC[C@@H]2C[C@@H]4C[C@H]2[C@@H](Nc2nc(ncc2F)N3)[C@H]4C(N)=O)CC1 | 6.00 to 7.00 | 0/73 at 1 μM | < 5.20 | 6.00 to 7.00 | 5.20 to 6.00 |  |  | 
3 | NC(=O)[C@H]1[C@H]2C[C@H]3[C@H]1Nc1nc(ncc1F)Nc1cccc(c1)NC(=O)CS[C@@H]3C2 [drawing 221] | 7.00 to 9.00 | 12/36 at 1 | 6.00 to 7.00 | 7.00 to 9.00 | 6.00 to 7.00 |  |  | 
4 | O=C(O)[C@H]1[C@H]2C[C@H]3[C@H]1Nc1nc(ncc1F)Nc1cccc(c1)OCCS[C@@H]3C2 [drawing 218] | 7.00 to 9.00 |  | < 5.20 | 7.00 to 9.00 | < 5.20 | 8/36 at 10 μM |  | 
5 | CN1CCN(c2cc3cc(c2)C(=O)NC[C@@H]2C[C@@H]4C[C@H]2[C@@H](Nc2nc(ncc2F)N3)[C@H]4C(N)=O)CC1 |  | 14/264 at 1 μM | 5.20 to 6.00 | 7.00 to 9.00 | 6.00 to 7.00 |  |  | 
6 | CN1CCN(c2ccc3cc2[C@@H](O)CS[C@@H]2C[C@@H]4C[C@H]2[C@@H](Nc2nc(ncc2F)N3)[C@H]4C(N)=O)CC1 | 7.00 to 9.00 | 121/267 at 1 μM | 7.00 to 9.00 | 7.00 to 9.00 | 7.00 to 9.00 |  |  | 
7 | NC(=O)[C@H]1[C@@H]2C[C@H]3CNC(=O)Cn4cc(cn4)Nc4ncc(F)c(n4)N[C@@H]1[C@@H]3C2 | 7.00 to 9.00 | 2/73 at 1 μM | < 5.20 | 7.00 to 9.00 | 5.20 to 6.00 |  |  | 
8 | NC(=O)[C@H]1[C@@H]2CC3CNC(=O)c4cccc(c4)Nc4ncc(F)c(n4)N[C@@H]1[C@@H]3C2 (some centres unmarked) [drawing 254] | 7.00 to 9.00 | 1/76 at 1 μM | 5.20 to 6.00 | 7.00 to 9.00 | 5.20 to 6.00 |  |  | 
9 | C=CC1CC2/C=C/COc3cccc(c3)Nc3ncc(F)c(n3)N[C@H]2[C@H]1C(N)=O (some centres unmarked) | 6.00 to 7.00 | 0/36 |  | 6.00 to 7.00 |  | 12/255 |  | 
10 | CCC1CC2/C=C\COc3cccc(c3)Nc3ncc(F)c(n3)N[C@H]2[C@H]1C(N)=O (some centres unmarked) | 7.00 to 9.00 | 1/36 at 1 uM |  | 7.00 to 9.00 |  |  |  | 
11 | CN1CCN(c2ccc3cc2OCCS[C@@H]2C[C@@H]4C[C@H]2[C@@H](Nc2nc(ncc2F)N3)[C@H]4C(N)=O)CC1 [drawing 220] | 7.00 to 9.00 | 12/51 at 1 μM | 6.00 to 7.00 | 7.00 to 9.00 | 6.00 to 7.00 |  |  | 
12 | NC(=O)[C@H]1[C@H]2C[C@H]3[C@H]1Nc1nc(ncc1F)Nc1cccc(c1)C(=O)CS[C@@H]3C2 [drawing 214] | 7.00 to 9.00 | 2/36 at 1 μM | 5.20 to 6.00 | 7.00 to 9.00 | 5.20 to 6.00 |  |  | 
13 | NC(=O)[C@H]1[C@H]2C[C@H]3[C@H]1Nc1nc(ncc1F)Nc1cccc(c1)OCCS[C@@H]3C2 [drawing 219] | 7.00 to 9.00 | 11/36 at 1 μM | 5.20 to 6.00 | 7.00 to 9.00 | 5.20 to 6.00 |  |  | 
14 | NC(=O)[C@H]1[C@@H]2CC3CNC(=O)c4cccc(c4)Nc4ncc(F)c(n4)N[C@@H]1[C@@H]3C2 (some centres unmarked) [drawing 259] | 7.00 to 9.00 | 1/76 at 1 μM |  | 7.00 to 9.00 |  |  | 5.20 to 6.00 | 5.20 to 6.00
15 | C=CC1CC2/C=C\COc3cccc(c3)Nc3ncc(F)c(n3)N[C@H]2[C@H]1C(N)=O (some centres unmarked) | 7.00 to 9.00 | 0/36 at 1 uM |  | 7.00 to 9.00 |  |  |  | 
16 | CN1CCN(c2ccc3cc2[C@H](O)CS[C@@H]2C[C@@H]4C[C@H]2[C@@H](Nc2nc(ncc2F)N3)[C@H]4C(N)=O)CC1 | 7.00 to 9.00 | 121/267 at 1 μM | 7.00 to 9.00 | 7.00 to 9.00 | 7.00 to 9.00 |  |  | 
17 | N#Cc1ccc2cc1NC(=O)CS[C@@H]1C[C@@H]3C[C@H]1[C@@H](Nc1nc(ncc1F)N2)[C@H]3C(N)=O [drawing 223] | 6.00 to 7.00 | 12/38 at 1 μM | < 5.20 | 7.00 to 9.00 | < 5.20 |  |  | 
18 | CCC1CC2CCCOc3cccc(c3)Nc3ncc(F)c(n3)N[C@H]2[C@H]1C(N)=O (some centres unmarked) | 6.00 to 7.00 | 0/36 at 1 uM |  | 6.00 to 7.00 |  |  |  | 
19 | NC(=O)[C@H]1[C@H]2C[C@H]3[C@H]1Nc1nc(ncc1F)Nc1cccc(c1)[C@H](O)CS[C@@H]3C2 | 7.00 to 9.00 | 0/76 at 1 μM | 6.00 to 7.00 | 7.00 to 9.00 | 6.00 to 7.00 |  |  | 
20 | CN1CCN(c2ccc3cc2NC(=O)CS[C@@H]2C[C@@H]4C[C@H]2[C@@H](Nc2nc(ncc2F)N3)[C@H]4C(N)=O)CC1 [drawing 222] | 7.00 to 9.00 | 13/36 at 1 μM | 6.00 to 7.00 | 7.00 to 9.00 | 6.00 to 7.00 |  |  | 
